Reference: a compilation of properties of binary mixtures (doi:10.1016/j.molliq.2022.120564)

Assay: xn = mol fraction of the nth substance listed
Conditions: 298.15 K, 101.3 kPa

CC(=O)[O-].CCCC[N+]1(C)CCCC1 + O
Conditions	electrical conductivity [S/m]
x1 = 0.005	1.84
x1 = 0.029	2.8
x1 = 0.046	2.63
x1 = 0.069	2.17
x1 = 0.095	1.79
x1 = 0.111	1.26
x1 = 0.138	1.18
x1 = 0.215	0.8
x1 = 0.253	0.575
x1 = 0.305	0.495
x1 = 0.396	0.339
x1 = 0.5	0.193
x1 = 0.658	0.142
